{
  "source": "patent US20090306053A1",
  "about": "“Highly selective rho-kinase inhibitor” (priority 2005, published 2009)",
  "format_in_all_cases": "biochemical",
  "key": {"[1]": {"molecular_target": "T1, Purified bovine PKA (catalyst subunit) (Bos taurus, UniProt P00517)", "T1 construct": "Purified bovine PKA (catalyst subunit, Promega); purchased Promega", "assay": "PKA kinase assay (Kinase-Glo ATP consumption)", "settings": "for IC50: 1 μM ATP, read-out: Kinase Inhibiting Activity (IC50) PKA; for Realative Inhibitory Activity PKA: relative ratio to ROCKII (=1.0), based on IC50 values", "description": "Purified bovine PKA (catalyst subunit, Promega) was used to evaluate its activity to phosphorylate a substrate peptide (LRRASLG, Promega).\n(§1) In a system of the total volume of 50 μL, the reaction of the above-mentioned enzyme (43 ng) was carried out at room temperature for 20 minutes in the presence of 40 mM of Tris-HCl (pH 7.5), 20 mM of magnesium chloride, 1 mg/mL of BSA, 5 μM of the above peptide, and 1 μM of ATP. After the kinase reaction, the luminescence intensity corresponding to the amount of ATP in the reaction system was measured using a luciferase reagent (Kinase-Glo Luminescent Kinase Assay kit, Promega) with a chemiluminescence measurement apparatus (MicroLumat, Berthold Technologies). The amount of ATP consumed by the phosphorylation reaction was calculated by comparison with the luminescence intensity in the system when the kinase reaction was not carried out.\n(§2) With this system, the kinase reaction was carried out in the presence of a compound at various concentrations, and the IC50 value of the compound was determined based on the resulting compound concentration-response curve for ATP consumption.\n(§3) The ROCKII-inhibiting activity of a compound to be tested was defined as 1.0, and the inhibitory activities of the compound against kinases (PKA, PKG, CaMKII, and AuroraA) other than ROCKII were calculated as relative ratios to the ROCKII-inhibiting activity, based on the IC50 values calculated using the above-described evaluation system."}, "[2]": {"molecular_target": "T2, Recombinant human AuroraA (Homo sapiens, UniProt O14965)", "T2 construct": "purchased Upstate", "T2 sequence (O14965 1-403)": "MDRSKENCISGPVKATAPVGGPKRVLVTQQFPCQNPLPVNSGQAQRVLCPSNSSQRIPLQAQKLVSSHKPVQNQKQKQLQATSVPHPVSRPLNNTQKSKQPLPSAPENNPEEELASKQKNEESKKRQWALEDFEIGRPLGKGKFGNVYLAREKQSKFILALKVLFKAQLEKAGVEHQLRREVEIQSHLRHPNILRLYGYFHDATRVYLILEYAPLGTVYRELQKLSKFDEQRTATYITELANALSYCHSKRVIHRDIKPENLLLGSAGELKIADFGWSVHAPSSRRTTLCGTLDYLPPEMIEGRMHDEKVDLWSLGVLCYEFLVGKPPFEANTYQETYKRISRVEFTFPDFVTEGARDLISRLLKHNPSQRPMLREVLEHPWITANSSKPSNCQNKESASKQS", "assay": "AuroraA kinase assay (Kinase-Glo ATP consumption)", "set-up": "key to Realative Inhibitory Activity AuroraA: ratio relative to ROCKII-inhibiting activity defined as 1.0 (from IC50s)", "settings": "for IC50: 1 μM ATP, read-out: Kinase Inhibiting Activity (IC50) AuroraA; for Realative Inhibitory Activity AuroraA: relative ratio to ROCKII (=1.0), based on IC50 values", "description": "Recombinant human AuroraA (Upstate) was used to evaluate its activity to phosphorylate a substrate peptide (LRRASLG, Promega) was evaluated.\nas §1, with “enzyme (40” for “enzyme (43”, “for 80” for “for 20”, “of MOPS-NaOH” for “of Tris-HCl”, “chloride, 200” for “chloride, 1 mg/mL of BSA, 5”\nas §2, §3"}, "ROCKII (Rho-kinase)": {"molecular_target": "ROCKII (Rho-kinase) (Homo sapiens, UniProt O75116)", "sequence (O75116 whole entry, species assumed)": "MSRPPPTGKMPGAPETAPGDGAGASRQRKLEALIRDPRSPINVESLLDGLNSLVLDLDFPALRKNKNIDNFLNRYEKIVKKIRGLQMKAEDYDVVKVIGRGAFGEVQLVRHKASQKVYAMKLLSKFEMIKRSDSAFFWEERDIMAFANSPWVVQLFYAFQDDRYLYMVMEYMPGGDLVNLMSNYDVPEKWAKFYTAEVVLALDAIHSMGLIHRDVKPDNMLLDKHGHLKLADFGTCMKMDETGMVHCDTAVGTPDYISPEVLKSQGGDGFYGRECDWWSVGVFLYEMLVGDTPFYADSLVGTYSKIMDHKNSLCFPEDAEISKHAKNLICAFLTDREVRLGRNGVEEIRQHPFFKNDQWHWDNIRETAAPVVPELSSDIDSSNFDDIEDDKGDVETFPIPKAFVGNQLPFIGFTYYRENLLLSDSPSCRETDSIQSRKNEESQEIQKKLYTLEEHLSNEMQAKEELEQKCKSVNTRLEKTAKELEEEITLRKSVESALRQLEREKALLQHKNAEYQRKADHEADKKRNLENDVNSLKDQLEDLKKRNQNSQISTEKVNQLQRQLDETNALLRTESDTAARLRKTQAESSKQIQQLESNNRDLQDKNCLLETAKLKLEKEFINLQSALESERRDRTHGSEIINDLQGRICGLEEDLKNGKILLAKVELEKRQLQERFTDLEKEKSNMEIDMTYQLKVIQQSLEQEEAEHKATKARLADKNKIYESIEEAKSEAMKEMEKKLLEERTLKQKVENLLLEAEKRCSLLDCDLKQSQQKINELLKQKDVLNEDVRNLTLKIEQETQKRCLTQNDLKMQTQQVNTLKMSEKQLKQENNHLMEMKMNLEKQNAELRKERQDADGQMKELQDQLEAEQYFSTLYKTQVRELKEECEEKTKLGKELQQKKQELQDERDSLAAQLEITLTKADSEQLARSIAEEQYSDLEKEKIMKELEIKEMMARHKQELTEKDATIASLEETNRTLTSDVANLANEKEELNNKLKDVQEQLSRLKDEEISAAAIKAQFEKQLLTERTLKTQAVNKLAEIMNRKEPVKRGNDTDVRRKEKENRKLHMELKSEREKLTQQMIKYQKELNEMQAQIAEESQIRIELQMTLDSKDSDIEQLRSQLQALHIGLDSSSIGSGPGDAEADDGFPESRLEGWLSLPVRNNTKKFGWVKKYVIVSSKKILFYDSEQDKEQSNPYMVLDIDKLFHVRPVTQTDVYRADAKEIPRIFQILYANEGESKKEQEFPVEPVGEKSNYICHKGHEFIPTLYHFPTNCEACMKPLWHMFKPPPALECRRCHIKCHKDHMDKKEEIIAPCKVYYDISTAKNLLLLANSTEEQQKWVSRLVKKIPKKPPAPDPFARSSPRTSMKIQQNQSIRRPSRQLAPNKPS", "assay": "Rho-kinase (ROCKII) assay according to Patent Document 1", "set-up": "key to Realative Inhibitory Activity ROCKII: relative ratio; ROCKII-inhibiting activity defined as 1.0", "settings": "for Realative Inhibitory Activity ROCKII: ROCKII-inhibiting activity defined as 1.0 (reference); for IC50: read-out: Kinase Inhibiting Activity (IC50) ROCKII", "description": "An Rho-kinase assay was carried out according to the method described in Patent Document 1, and the concentration of a compound for inhibiting Rho-kinase activity by 50% (hereinafter referred to as “IC50 value”) was calculated.\nas §3"}, "Purified rat PKC": {"molecular_target": "Purified rat PKC", "assay": "PKC kinase assay (Kinase-Glo ATP consumption)", "settings": "1 μM ATP; read-out: Kinase Inhibiting Activity (IC50) PKC", "description": "Purified rat PKC (containing PKCα, β, and γ and small amounts of δ and ξ isoforms, Promega) was used to evaluate its activity to phosphorylate a substrate peptide (AAKIQASFRGHMARKK, Promega).\nas §1, with “enzyme (5” for “enzyme (43”, “for 80” for “for 20”, “of 20” for “of 40”, “chloride, 0.4 mM of calcium chloride, 0.1” for “chloride, 1”, “BSA, 0.25 mM of EGTA, 0.5 mg/mL of phosphatidylserine (Sigma), 0.05 mg/mL of 1,2-dioctanoyl-sn-glycerol (Sigma), 10” for “BSA, 5”\nas §2"}, "Recombinant human Ab1": {"molecular_target": "T3, Recombinant human Ab1 (Homo sapiens, UniProt P00519)", "T3 construct": "from 27th to 1149th amino acids; purchased Upstate", "T3 sequence (P00519 27-1149 isoform P00519-2)": "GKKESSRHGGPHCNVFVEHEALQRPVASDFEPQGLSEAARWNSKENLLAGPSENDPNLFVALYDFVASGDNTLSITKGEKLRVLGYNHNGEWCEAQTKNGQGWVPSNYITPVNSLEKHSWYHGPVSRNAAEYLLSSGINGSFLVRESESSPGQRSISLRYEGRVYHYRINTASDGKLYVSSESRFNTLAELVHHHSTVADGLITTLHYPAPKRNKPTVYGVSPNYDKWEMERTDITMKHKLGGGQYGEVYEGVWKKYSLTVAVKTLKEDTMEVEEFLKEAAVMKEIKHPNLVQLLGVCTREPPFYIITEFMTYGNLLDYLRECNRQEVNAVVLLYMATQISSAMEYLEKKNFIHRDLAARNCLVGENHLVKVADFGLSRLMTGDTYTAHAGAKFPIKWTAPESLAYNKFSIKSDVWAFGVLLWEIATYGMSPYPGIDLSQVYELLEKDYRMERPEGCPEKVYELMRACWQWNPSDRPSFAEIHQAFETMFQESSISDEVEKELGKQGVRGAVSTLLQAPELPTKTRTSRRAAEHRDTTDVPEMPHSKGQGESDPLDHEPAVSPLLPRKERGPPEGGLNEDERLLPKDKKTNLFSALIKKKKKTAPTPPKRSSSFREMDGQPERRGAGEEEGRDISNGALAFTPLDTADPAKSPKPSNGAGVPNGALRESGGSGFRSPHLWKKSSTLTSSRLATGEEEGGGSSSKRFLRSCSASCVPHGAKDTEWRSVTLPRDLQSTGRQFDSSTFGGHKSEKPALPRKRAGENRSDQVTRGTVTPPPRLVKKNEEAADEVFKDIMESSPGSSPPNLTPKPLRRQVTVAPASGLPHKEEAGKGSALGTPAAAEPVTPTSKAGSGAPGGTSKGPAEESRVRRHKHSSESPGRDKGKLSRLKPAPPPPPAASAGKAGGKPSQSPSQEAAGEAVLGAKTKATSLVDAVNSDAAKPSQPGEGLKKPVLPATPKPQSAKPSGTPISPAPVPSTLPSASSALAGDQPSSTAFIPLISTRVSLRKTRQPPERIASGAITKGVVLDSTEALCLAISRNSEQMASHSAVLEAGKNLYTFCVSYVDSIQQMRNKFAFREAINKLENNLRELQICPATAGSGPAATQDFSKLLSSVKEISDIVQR", "assay": "Abl kinase assay (Kinase-Glo ATP consumption)", "settings": "1 μM ATP; read-out: Kinase Inhibiting Activity (IC50) Abl", "description": "Recombinant human Ab1 (from 27th to 1149th amino acids, Upstate) was used to evaluate its activity to phosphorylate a substrate peptide (EAIYAAPFAKKK, Upstate).\nas §1, with “enzyme (20” for “enzyme (43”, “for 80” for “for 20”, “of 50” for “of 40”, “7.5), 10” for “7.5), 20”, “chloride, 50” for “chloride, 1 mg/mL of BSA, 5”\nas §2"}},
  "data": [
    {"compound": "2-(S)-1-(4-fluoroisoquinoline-5-sulfonyl)-4-glycyl-2-methylhomopiperazine dihydrochloride [Example 1]", "values": [
      {"measurement": "IC50", "setting": "[1]", "result": "> 100", "unit": "µM"},
      {"measurement": "Realative Inhibitory Activity PKA", "setting": "[1]", "result": ">3000"},
      {"measurement": "IC50", "setting": "[2]", "result": 84.5, "unit": "µM"},
      {"measurement": "Realative Inhibitory Activity AuroraA", "setting": "[2]", "result": 2817},
      {"measurement": "Realative Inhibitory Activity ROCKII", "setting": "ROCKII (Rho-kinase)", "result": 1},
      {"measurement": "IC50", "setting": "ROCKII (Rho-kinase)", "result": 0.0321, "unit": "µM"},
      {"measurement": "IC50", "setting": "Purified rat PKC", "result": "> 100", "unit": "µM"},
      {"measurement": "IC50", "setting": "Recombinant human Ab1", "result": "> 100", "unit": "µM"}
    ]},
    {"compound": "CNCC(=O)N1CCCN(S(=O)(=O)c2cccc3cncc(F)c23)[C@@H](C)C1.Cl.Cl", "note": "[Example 2, 2-(S)-1-(4-fluoroisoquinoline-5-sulfonyl)-2-methyl-4-(N-methylglycyl)homopiperazine dihydrochloride]", "values": [
      {"measurement": "IC50", "setting": "[1]", "result": "> 100", "unit": "µM"},
      {"measurement": "Realative Inhibitory Activity PKA", "setting": "[1]", "result": ">3000"},
      {"measurement": "IC50", "setting": "[2]", "result": 92.2, "unit": "µM"},
      {"measurement": "Realative Inhibitory Activity AuroraA", "setting": "[2]", "result": ">3000"},
      {"measurement": "Realative Inhibitory Activity ROCKII", "setting": "ROCKII (Rho-kinase)", "result": 1},
      {"measurement": "IC50", "setting": "ROCKII (Rho-kinase)", "result": 0.029, "unit": "µM"},
      {"measurement": "IC50", "setting": "Purified rat PKC", "result": "> 100", "unit": "µM"},
      {"measurement": "IC50", "setting": "Recombinant human Ab1", "result": "> 100", "unit": "µM"}
    ]}
  ]
}
